Data reported in patent US20040063790A1, “Methods for inhibition of angiogenesis” (The Scripps Research Institute, priority 1996, published 2004).
[ ]: non-standard residue; d: D form.

Tests used:
[1] = tested on: tumor-induced angiogenesis; assay: CAM assay, tumor-induced angiogenesis, intravenous application; type: in vivo, chick; details: intravenous injection
Procedure: Angiogenesis was induced in the CAM assay system by direct apposition of a tumor fragment on the CAM. Preparation of the chick embryo CAM was identical to the procedure described above. Instead of a filter paper disk, a 50 milligram (mg) to 55 mg in weight fragment of one of human melanoma tumor M21-L, human lung carcinoma tumor UCLAP-3, human pancreatic carcinoma cell line FG (Cheresh et al., Cell 58:945-953, 1989), or human laryngeal carcinoma cell line HEp3, all of which are αvβ3 negative tumors, was placed on the CAM in an area originally devoid of blood vessels.
The M21-L human melanoma cell line, UCLAP-3 human lung carcinoma cell line, FG pancreatic carcinoma cell line, or HEp3 human laryngeal carcinoma cell line, all αvβ3 negative, were used to grow the solid human tumors on the CAMs of chick embryos. A single cell suspension of 8×10^6 M21-L, UCLAP-3, and FB or 5×10^5 HEp3 cells was first applied to the CAMs in a total volume of 30 μl of sterile HBSS. The windows were sealed with tape and the embryos were incubated for 7 days to allow growth of human tumor lesions. At the end of 7 days, now a 17-day embryo, the tumors were resected from the CAMs and trimmed free of surrounding CAM tissue. […]
The effects of peptide exposure to tumor-induced vasculature in the CAM assay system was also assessed. […]

UCLAP-3 tumors = assay: Tumor regression in the CAM assay, UCLAP-3; type: in vivo, chick; details: 100 μg intravenously 18 hours post-implantation; FIG. 15
Procedure: As described in Example 5, in addition to visually assessing the effect of anti-αvβ3 antagonists on growth factor or tumor induced angiogenesis, the effect of the antagonists was also assessed by measuring any changes to the tumor mass following exposure. For this analysis, the tumor-induced angiogenesis CAM assay system was prepared as described in Example 4C. At the end of the 7 day incubation period, the resulting tumors were resected from the CAMs and trimmed free of any residual CAM tissue, washed with 1 ml of phosphate buffer saline and wet weights were determined for each tumor.
To further assess the effects of αvβ3 antagonists on tumor growth and survival, fragments of human melanoma and fragments of carcinomas of the lung, pancreas, and larynx were placed on CAMS of 10-day old embryos as described in Example 3A.
Additional tumor regression assays were performed with the αvβ3-reactive peptide 85189 (SEQ ID NO: 15) against 69601 as a control. The assays were performed as described above with the exception that 100 μg of peptide was intravenously injected into the CAM at 18 hours post-implantation. After 48 hours more, the tumors were then resected and wet weights were obtained.

[2] = tested on: growth factor-induced corneal angiogenesis; assay: In vivo rabbit eye model assay; details: both vFGF and VEGF stimulated eyes
From the text: The effect of anti-αvβ3 antagonists on growth factor-induced angiogenesis can be observed in naturally transparent structures as exemplified by the cornea of the eye. […] Stimulators of angiogenesis, such as bFGF, when applied to the cornea induce the growth of new blood vessels from the rim of the cornea. Antagonists of angiogenesis, applied to the cornea, inhibit the growth of new blood vessels from the rim of the cornea. Thus, the cornea undergoes angiogenesis through an invasion of endothelial cells from the rim of the cornea into the tough collagen-packed corneal tissue which is easily visible. The rabbit eye model assay therefore provides an in vivo model for the direct observation of stimulation and inhibition of angiogenesis following the implantation of compounds directly into the cornea of the eye.
Each experiment consisted of eight rabbits in which one eye received a pellet comprising 100 nanograms (ng) bFGF and the other eye received a pellet comprising 1 microgram (μg) VEGF. The pellets were inserted into the corneal pocket as described above, and the cytokines subsequently stimulated the growth of new blood vessels into the cornea. […] After 7 days, the cornea were evaluated as described above.

M21-L melanoma tumor = assay: In vivo chimeric mouse:human assay; set-up: species or system SCID mouse; details: intravenous, FIG. 18
Procedure: An in vivo chimeric mouse:human model was generated by replacing a portion of skin from a SCID mouse with human neonatal foreskin (FIG. 4). After the skin graft was established, the human foreskin was inoculated with carcinoma cells. After a measurable tumor was established, either an αvβ3 antagonist or PBS was injected into the mouse tail vein. Following a 2-3 week period, the tumor was excised and analyzed by weight and histology.
The in vivo chimeric mouse:human model is prepared essentially as described in Yan, et al., J. Clin. Invest., 91:986-996 (1993). Briefly, a 2 cm^2 square area of skin was surgically removed from a SCID mouse (6-8 weeks of age) and replaced with a human foreskin. The mouse was anesthetized and the hair removed from a 5 cm^2 area on each side of the lateral abdominal region by shaving. Two circular graft beds of 2 cm^2 were prepared by removing the full thickness of skin down to the fascia. Full thickness human skin grafts of the same size derived from human neonatal foreskin were placed onto the wound beds and sutured into place. […]
In a procedure similar to that described above for monoclonal antibodies, peptide antagonists of αvβ3 were injected intravenously into the tail vein of SCID mice having measurable M21-L tumors. […] The mean volume and weight of resected tumors following treatment were determined with the results respectively shown in FIGS. 19A and 19B.

Substance | inhibition of tumor-induced blood vessel formation [1] | effect on tumor weight, UCLAP-3 (UCLAP-3 tumors) | corneal blood vessel growth at 7 days [2] | tumor volume (M21-L melanoma tumor)
cyclo (RGDfV) [Peptide 66203] | formation of blood vessels was inhibited |  |  | 
cyclo (RADfV) (cyclo(RAD[dF]V); SMILES CC(C)[C@@H]1NC(=O)[C@@H](Cc2ccccc2)NC(=O)[C@H](CC(=O)O)NC(=O)[C@H](C)NC(=O)[C@H](CCCNC(=N)N)NC1=O) [Peptide 69601, reference compound] |  | lack of effect | substantial corneal blood vessel growth | approximately 360 mm^3
